In patent US20220259249A1, “INHIBITORS OF ANTIBIOTIC RESISTANCE MEDIATED BY ARNT” (priority 2019, published 2022):
Where two headings read alike, the source gives them in different places.

Experiments:
[1] = test system: P. aeruginosa PA14 col^R 5 (colistin-resistant strain); assay: Checkerboard assay compound/colistin; assay type: cell-based
Protocol: The checkerboard essays were performed in microtiter plates with 96 wells, aliquoting in each column of wells 50 μl of MH medium containing decreasing concentrations of colistin (dilutions in reason of 2 from 384 to 1.5 μg/ml) or without colistin, and in each row of wells further 50 μl of MH medium containing decreasing concentrations of compound of interest (dilutions in reason 2 from […]) or without compound. Finally, 50 μl of the inoculum of the PA14 col^R 5 strain were added to each well at a concentration of ˜1.5×10^6 cells/ml in MH medium, so as to reach a final volume of 150 μl, a bacteria concentration equal to […], colistin concentrations in the range 0-128 μg/ml and concentrations of compounds of interest in the range 0-125 μM. Plates were incubated at 37° C. without shaking for 24 hours, and bacterial growth was assessed by measuring the A600 in a microplate reader (Victor 2^V, Perkin-Elmer). Three independent experiments were conducted for each compound, and the averages of the values obtained in the three experiments were considered to determine the IC90 values.

[2] = test system: 16HBE cells (human epithelial cells of bronchial origin); assay: Cell viability test (MTT reduction);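 further: formazan absorbance at 570 nm after MTT reduction, corrected for cell-free blank wells, reported relative to untreated cells, from duplicate wells over three independent repeats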
Protocol: The cytotoxic potential of the compounds was evaluated on cell cultures in vitro. […] The results are reported in the table as viability (%) compared to untreated cells (Table 4).
To evaluate the cytotoxic potential of the compounds under examination, the MTT (3-(4,5-dimethylthiazol-2-yl)-2,5-diphenyltetrazolium) reduction test, commonly used to monitor cell viability was used following the exposure to potentially cytotoxic agents. The essay is based on the reduction of MTT to formazan, a compound that assumes a blue colour which can be evaluated by spectrophotometric reading at a wavelength of 570 nm. For the essay we used the 16HBE cell line. […] Each test was performed in duplicate and three independent replicas were made.
Cell viability was calculated as follows:
COD570=OD570 of sample−OD570 of wells without cells (white)
Viability=100−reduction (%)
where: NT indicates the samples of cells non-threated with the compounds; T the samples of cells treated with the compounds at the different concentrations.
The mean cell viability values were calculated using the Excel mean and standard deviation functions.

[3] = test system: P. aeruginosa PA14 col^R 5 (colistin-resistant strain); assay: microbe, parasite or virus in culture; assay type: cell-based; conditions: for IC90: read-out: IC90, synergy with colistin (8 μg/ml)
Protocol: The compounds identified by in silico screening were tested for their antibacterial activity (in the absence of colistin) and for their synergistic or adjuvant activity with colistin against a colistin-resistant strain of P. aeruginosa grown in the absence or presence of a sub-inhibitory concentration of colistin (8 μg/ml).
This strain over-expresses the am genes responsible for the modification of lipopolysaccharide by the addition of L-amino-arabinose.
The strain was grown in Mueller-Hinton (MH) medium for 8 hours, and inoculated at a cell density of ˜10^6/ml in MH medium supplemented or not with colistin at a concentration of 16 μg/ml. […] The microtitration plates were incubated at 37° C. without stirring for 24 hours. Bacterial growth was assessed by measuring absorbance at 600 nm (A600) in a microplate reader (Victor 2^V, Perkin-Elmer). […] For each compound three independent experiments were conducted, and the averages of the values obtained in the three experiments are considered to determine the values of IC50 e IC90.

[4] = test system: P. aeruginosa strains resistant and sensitive to colistin; assay: MIC of colistin in presence of BBN149 or DMSO, P. aeruginosa strains; assay type: cell-based
Protocol: (§1) All the colistin-resistant strains used depend on the aminoarabinosylation of lipid A as a mechanism of resistance to colistin (Lo Sciuto e Imperi, 2018; Esposito et al., 2018). […] MIC essays were performed in 96-well microtitration plates, using previously characterized P. aeruginosa and K. pneumoniae strains (Lo Sciuto e Imperi, 2018; Esposito et al., 2018). […] At least three independent experiments were conducted for each strain.

[5] = test system: colistin-resistant clinical strains of Klebsiella pneumoniae; assay: MIC of colistin in presence of BBN149 or DMSO, K. pneumoniae clinical strains; assay type: cell-based
Protocol: as §1

[6] = 16HBE, 1.95 μM, 18 hours, MTT, vs untreated cells
[7] = 16HBE, 3.91 μM, 18 hours, MTT, vs untreated cells
[8] = 16HBE, 7.81 μM, 18 hours, MTT, vs untreated cells
[9] = 16HBE, 15.63 μM, 18 hours, MTT, vs untreated cells
[10] = 16HBE, 31.25 μM, 18 hours, MTT, vs untreated cells
[11] = 16HBE, 62.5 μM, 18 hours, MTT, vs untreated cells
[12] = 16HBE, 125 μM, 18 hours, MTT, vs untreated cells
[13] = 16HBE, 250 μM, 18 hours, MTT, vs untreated cells
[14] = Pseudomonas aeruginosa, PA14, 24 h, read-out: IC50 without colistin
[15] = compound ≥31 μM, MIC 64 to 8 μg/ml, PA14 col^R 5

C[C@@]12CCC3[C@@](CCC4[C@@]3(C)CCC[C@@]4(C)C(=O)OC3OC(CO)C(O)C(O)C3O)(CC1)C2 (stereo partly drawn) [SR4, glucopyranosyl β-D ester of ent-beyeran-19-oic acid]
melting point: 160 °C | concentration of compound reducing MIC of colistin by 4 times [1]: 125 µM | reduction of MIC of colistin (times) ([1]; compound 125 μM only, PA14 col^R 5): 4 times | Average percentage of cell viability (±standard deviation) [2, 6]: 96.35 ± 9.42% | Average percentage of cell viability (±standard deviation) [2, 7]: 92.31 ± 3.26% | Average percentage of cell viability (±standard deviation) [2, 8]: 92.44 ± 2.11% | Average percentage of cell viability (±standard deviation) [2, 9]: 97.27 ± 5.61% | Average percentage of cell viability (±standard deviation) [2, 10]: 101.69 ± 4.39% | Average percentage of cell viability (±standard deviation) [2, 11]: 99.27 ± 2.43% | Average percentage of cell viability (±standard deviation) [2, 12]: 106.23 ± 5.52% | Average percentage of cell viability (±standard deviation) [2, 13]: −1.11 ± 2.02% | reduction in cell viability ([2]; 16HBE, highest concentration (250 μM), 18 hours): total reduction of cell viability | IC50 [3, 14]: > 250 µM | IC90 ([3]; PA14 ColR5, colistin 8 μg/ml (sub-inhibitory), minimum concentration causing at least 90% growth inhibition, 24 h): > 250 µM

C[C@]12C=C[C@@]3(CC[C@@H]4[C@@](C)(COC(=O)C(=O)O)CCC[C@@]4(C)[C@@H]3CC1)C2 [BBN149, ent-beyer-15-en-18-O-oxalic acid]
reduction of MIC of colistin (times) [1]: 4 times | concentration of compound reducing MIC of colistin by 4 times ([1]; MIC of colistin 64 to 16 μg/ml, PA14 col^R 5): ≥ 16 µM | reduction of MIC of colistin (times) [1, 15]: 8 times | Average percentage of cell viability (±standard deviation) [2]: 86.07 ± 5.30% | Average percentage of cell viability (±standard deviation) [2, 6]: 94.15 ± 6.34% | Average percentage of cell viability (±standard deviation) [2, 7]: 90.17 ± 7.35% | Average percentage of cell viability (±standard deviation) [2, 8]: 86.13 ± 2.37% | Average percentage of cell viability (±standard deviation) [2, 9]: 90.80 ± 6.31% | Average percentage of cell viability (±standard deviation) [2, 11]: 76.33 ± 2.65% | Average percentage of cell viability (±standard deviation) [2, 12]: 71.99 ± 5.18% | Average percentage of cell viability (±standard deviation) [2, 13]: 65.51 ± 4.05% | activity on colistin-sensitive strains ([4]; 60 μM BBN149, colistin-sensitive P. aeruginosa strains): no relevant activity | MIC of colistin in the presence of 60 μM BBN149 ([4]; strain KK1): 1 µg/mL | MIC of colistin in the presence of 60 μM BBN149 ([4]; strain KK1 col^R 1): 8 µg/mL | MIC of colistin in the presence of 60 μM BBN149 ([4]; strain KK27): 1 µg/mL | MIC of colistin in the presence of 60 μM BBN149 ([4]; strain KK27 col^R 6): 4 µg/mL | MIC of colistin in the presence of 60 μM BBN149 ([4]; strain PA14): 1 µg/mL | MIC of colistin in the presence of 60 μM BBN149 ([4]; strain PA14 col^R 5): 8 µg/mL | MIC of colistin in the presence of 60 μM BBN149 ([4]; strain TR1): 1 µg/mL | MIC of colistin in the presence of 60 μM BBN149 ([4]; strain TR1 col^R 6): 4 µg/mL | IC50 ([3]; Pseudomonas aeruginosa, PA14, 24 h, read-out: IC50, synergy with colistin (8 μg/ml)): 15.6 µM | IC50 [3, 14]: > 250 µM | IC90 ([3]; Pseudomonas aeruginosa, PA14, 24 h): 31.2 µM | inhibition of bacterial growth in the presence of colistin ([3]; colistin 8 μg/ml): able to inhibit bacterial growth in the presence of colistin | antibacterial activity per se ([3]; in the absence of colistin): none of the compounds showed antibacterial activity per se | MIC of colistin in the presence of 60 μM BBN149 ([5]; strain KP-Mo-3): 16 µg/mL | MIC of colistin in the presence of 60 μM BBN149 ([5]; strain KP-Mo-5): 8 µg/mL | MIC of colistin in the presence of 60 μM BBN149 ([5]; strain KP-Mo-6): 4 µg/mL | MIC of colistin in the presence of 60 μM BBN149 ([5]; strain KP-Mo-11): 8 µg/mL | MIC of colistin in the presence of 60 μM BBN149 ([5]; strain KP-Mo-16): 8 µg/mL

C[C@@]12CCC3[C@@](CCC4[C@@](C)(COC(=O)C(=O)O)CCC[C@]43C)(CC1)C2 (stereo partly drawn) [FDO-H, ent-beyeran-18-O-oxalic acid]
concentration of compound reducing MIC of colistin by 4 times [1]: ≥ 4 µM | reduction of MIC of colistin (times) ([1]; compound ≥4 μM, PA14 col^R 5): 4 times | reduction of MIC of colistin (times) [1, 15]: 8 times | Average percentage of cell viability (±standard deviation) [2, 6]: 106.31 ± 17.23% | Average percentage of cell viability (±standard deviation) [2, 7]: 94.57 ± 12.67% | Average percentage of cell viability (±standard deviation) [2, 8]: 100.25 ± 23.84% | Average percentage of cell viability (±standard deviation) [2, 9]: 94.06 ± 3.88% | Average percentage of cell viability (±standard deviation) [2, 10]: 93.65 ± 11.27% | Average percentage of cell viability (±standard deviation) [2, 11]: 97.14 ± 12.19% | Average percentage of cell viability (±standard deviation) [2, 12]: 98.42 ± 16.71% | Average percentage of cell viability (±standard deviation) [2, 13]: 76.51 ± 12.64% | IC50 [3, 14]: < 250 µM | IC50 ([3]; read-out: IC50, synergy with colistin (8 μg/ml), PA14 ColR5, colistin 8 μg/ml (sub-inhibitory), minimum concentration causing at least 50% growth inhibition, 24 h): 7.81 µM
